Reference: ChEMBL document CHEMBL1201862, “PubChem BioAssay data set” (2004)
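Results reflect a 48-hour exposure of cells in 96-well plates to compound at five concentrations. Abbreviation: GI50, concentration required for 50% inhibition of growth.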 Activity calls are given as the source filed them. Cut-off read from the data, not from the text of the source: active = GI50 up to about 1.1 µM and inactive = higher.

Columns and labels:
Assay in all cases: NCI anticancer screen, dose series, 48 h
HCC 2998 = tested on: HCC 2998
UACC-62 = tested on: UACC-62
SF-295 = tested on: SF-295
ACHN = tested on: ACHN
SF-268 = tested on: SF-268
786-0 = tested on: 786-0
A549 = tested on: A549
SR = tested on: SR
SF-539 = tested on: SF-539
HCT-15 = tested on: HCT-15
OVCAR-3 = tested on: OVCAR-3
HT-29 = tested on: HT-29
COLO 205 = tested on: COLO 205
NCI-H460 = tested on: NCI-H460
NCI-H23 = tested on: NCI-H23
HOP-62 = tested on: HOP-62
SK-OV-3 = tested on: SK-OV-3
DMS-114 = tested on: DMS-114
EKVX = tested on: EKVX
UACC-257 = tested on: UACC-257
M19-MEL = tested on: M19-MEL
SK-MEL-5 = tested on: SK-MEL-5
HCT-116 = tested on: HCT-116
MOLT-4 = tested on: MOLT-4
CCRF-CEM = tested on: CCRF-CEM
NCI-H226 = tested on: NCI-H226
K562 = tested on: K562
IGROV-1 = tested on: IGROV-1
SN12C = tested on: SN12C
OVCAR-8 = tested on: OVCAR-8
SK-MEL-28 = tested on: SK-MEL-28
KM12 = tested on: KM12
UO-31 = tested on: UO-31
HL-60 = tested on: HL-60
Malme-3M = tested on: Malme-3M
M14 = tested on: M14
LOX IMVI = tested on: LOX IMVI
DMS-273 = tested on: DMS-273
RPMI-8226 = tested on: RPMI-8226
LXFL 529 = tested on: LXFL 529
KM-20L2 = tested on: KM-20L2
U-251 = tested on: U-251
XF498 = tested on: XF498
SW-620 = tested on: SW-620
NCI-H522 = tested on: NCI-H522
SNB-19 = tested on: SNB-19
HOP-92 = tested on: HOP-92
A498 = tested on: A498
OVCAR-4 = tested on: OVCAR-4
SK-MEL-2 = tested on: SK-MEL-2
SNB-78 = tested on: SNB-78
DLD-1 = tested on: DLD-1
HOP-18 = tested on: HOP-18
CAKI-1 = tested on: CAKI-1
TK-10 = tested on: TK-10
SNB-75 = tested on: SNB-75
OVCAR-5 = tested on: OVCAR-5
RXF 393 = tested on: RXF 393

COC(=O)C(CCC#N)(CCC#N)C(=O)OC
GI50 (HCC 2998): > 100 µM (inactive) | GI50 (UACC-62): > 100 µM (inactive) | GI50 (SF-295): > 100 µM (inactive) | GI50 (ACHN): > 100 µM (inactive) | GI50 (SF-268): > 100 µM (inactive) | GI50 (786-0): > 100 µM (inactive) | GI50 (A549): > 100 µM (inactive) | GI50 (SR): > 100 µM (inactive) | GI50 (SF-539): > 100 µM (inactive) | GI50 (HCT-15): > 100 µM | GI50 (OVCAR-3): > 100 µM (inactive) | GI50 (HT-29): > 100 µM (inactive) | GI50 (COLO 205): > 100 µM (inactive) | GI50 (NCI-H460): > 100 µM (inactive) | GI50 (NCI-H23): > 100 µM (inactive) | GI50 (HOP-62): > 100 µM (inactive) | GI50 (SK-OV-3): > 100 µM (inactive) | GI50 (DMS-114): > 100 µM (inactive) | GI50 (EKVX): > 100 µM (inactive) | GI50 (UACC-257): > 100 µM (inactive) | GI50 (M19-MEL): > 100 µM (inactive) | GI50 (SK-MEL-5): > 100 µM (inactive) | GI50 (HCT-116): > 100 µM (inactive) | GI50 (MOLT-4): > 100 µM (inactive) | GI50 (CCRF-CEM): > 100 µM (inactive) | GI50 (NCI-H226): > 100 µM (inactive) | GI50 (K562): > 100 µM (inactive) | GI50 (IGROV-1): > 100 µM (inactive) | GI50 (SN12C): > 100 µM (inactive) | GI50 (OVCAR-8): > 100 µM (inactive) | GI50 (SK-MEL-28): > 100 µM (inactive) | GI50 (KM12): > 100 µM (inactive) | GI50 (UO-31): > 100 µM (inactive) | GI50 (HL-60): > 100 µM (inactive) | GI50 (Malme-3M): > 100 µM (inactive) | GI50 (M14): > 100 µM (inactive) | GI50 (LOX IMVI): > 100 µM (inactive) | GI50 (DMS-273): > 100 µM (inactive) | GI50 (RPMI-8226): > 100 µM (inactive) | GI50 (LXFL 529): > 100 µM (inactive) | GI50 (KM-20L2): > 100 µM (inactive) | GI50 (U-251): > 100 µM (inactive) | GI50 (XF498): > 100 µM (inactive) | GI50 (SW-620): > 100 µM (inactive) | GI50 (NCI-H522): > 100 µM (inactive) | GI50 (SNB-19): > 100 µM (inactive)

CC1(Cl)CC2OC3(Br)C=CC(C)(O)C2(CC1Br)C3(C)C (configuration not stated)
GI50 (HCC 2998): > 100 µM (inactive) | GI50 (HOP-92): 50.9 µM (inactive) | GI50 (UACC-62): > 100 µM (inactive) | GI50 (SF-295): > 100 µM (inactive) | GI50 (ACHN): > 100 µM (inactive) | GI50 (SF-268): > 100 µM (inactive) | GI50 (786-0): > 100 µM (inactive) | GI50 (A498): > 100 µM (inactive) | GI50 (A549): > 100 µM (inactive) | GI50 (SR): 23.6 µM (inactive) | GI50 (SF-539): > 100 µM (inactive) | GI50 (HCT-15): > 100 µM | GI50 (OVCAR-3): > 100 µM (inactive) | GI50 (OVCAR-4): > 100 µM (inactive) | GI50 (HT-29): > 100 µM (inactive) | GI50 (COLO 205): > 100 µM (inactive) | GI50 (NCI-H460): > 100 µM (inactive) | GI50 (SK-MEL-2): > 100 µM (inactive) | GI50 (NCI-H23): > 100 µM (inactive) | GI50 (HOP-62): > 100 µM (inactive) | GI50 (SK-OV-3): > 100 µM (inactive) | GI50 (DMS-114): > 100 µM (inactive) | GI50 (EKVX): > 100 µM (inactive) | GI50 (UACC-257): 97.5 µM (inactive) | GI50 (M19-MEL): > 100 µM (inactive) | GI50 (SNB-78): > 100 µM (inactive) | GI50 (SK-MEL-5): > 100 µM (inactive) | GI50 (HCT-116): > 100 µM (inactive) | GI50 (MOLT-4): > 100 µM (inactive) | GI50 (CCRF-CEM): > 100 µM (inactive) | GI50 (DLD-1): > 100 µM (inactive) | GI50 (NCI-H226): > 100 µM (inactive) | GI50 (K562): > 100 µM (inactive) | GI50 (IGROV-1): > 100 µM (inactive) | GI50 (SN12C): > 100 µM (inactive) | GI50 (HOP-18): > 100 µM (inactive) | GI50 (OVCAR-8): > 100 µM (inactive) | GI50 (SK-MEL-28): > 100 µM (inactive) | GI50 (KM12): > 100 µM (inactive) | GI50 (UO-31): > 100 µM (inactive) | GI50 (HL-60): 51.1 µM (inactive) | GI50 (CAKI-1): > 100 µM (inactive) | GI50 (Malme-3M): > 100 µM (inactive) | GI50 (TK-10): > 100 µM (inactive) | GI50 (M14): > 100 µM (inactive) | GI50 (LOX IMVI): > 100 µM (inactive) | GI50 (DMS-273): > 100 µM (inactive) | GI50 (SNB-75): 82.6 µM (inactive) | GI50 (RPMI-8226): > 100 µM (inactive) | GI50 (LXFL 529): > 100 µM (inactive) | GI50 (KM-20L2): > 100 µM (inactive) | GI50 (U-251): > 100 µM (inactive) | GI50 (OVCAR-5): > 100 µM (inactive) | GI50 (SW-620): > 100 µM (inactive) | GI50 (RXF 393): > 100 µM (inactive) | GI50 (SNB-19): > 100 µM (inactive)
